Structures can show the parent of a compound that is named as a salt.
Molecular target: T1, human CGT (ceramide galactosyltransferase), CHO/CGT lysate (Homo sapiens, UniProt Q16880)
T1 construct: Full-length human CGT cDNA was cloned into the BamH1/Xho1 site of pcDNA3.1 (+); expressed in transfected cells; host or cells: Chinese hamster ovary (CHO) cells; lysate prepared with M-PER
T1 sequence (Q16880 21-541): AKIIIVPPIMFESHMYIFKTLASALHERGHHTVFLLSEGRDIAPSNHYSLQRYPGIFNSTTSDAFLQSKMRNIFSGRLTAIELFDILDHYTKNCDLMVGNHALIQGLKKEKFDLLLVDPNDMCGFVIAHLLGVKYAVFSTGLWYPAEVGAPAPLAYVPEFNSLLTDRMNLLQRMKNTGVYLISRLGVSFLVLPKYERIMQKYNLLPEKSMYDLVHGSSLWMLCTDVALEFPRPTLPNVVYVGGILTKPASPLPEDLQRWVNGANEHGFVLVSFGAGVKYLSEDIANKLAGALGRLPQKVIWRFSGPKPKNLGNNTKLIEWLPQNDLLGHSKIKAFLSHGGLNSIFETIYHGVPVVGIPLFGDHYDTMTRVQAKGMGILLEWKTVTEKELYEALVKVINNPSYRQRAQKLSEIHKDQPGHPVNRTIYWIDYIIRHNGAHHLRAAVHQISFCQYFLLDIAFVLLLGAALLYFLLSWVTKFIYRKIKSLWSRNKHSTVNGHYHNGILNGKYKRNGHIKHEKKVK
Test: CGT enzyme assay, RapidFire/MS/MS readout with 0.01% Tween added (Table 1 ranges with two asterisks **)
Type: biochemical
Conditions: CGT enzymatic assay; range with two asterisks (**): RapidFire/MS/MS method with 0.01% Tween added
In short: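 IC50s come from variable-slope dose-response fits of internal-standard-normalized C6-NBD-dihydro-galactosylceramide, measured by RapidFire/MS/MS (ESI negative). Reactions: 1 h, 37 °C, human CGT-expressing CHO lysate (4 μg), 0.001–50 μM compound, 10 μM NBD-dihydro-ceramide, 17.5 μM UDP-galactose, 0.5% DMSO, pH 7.2; 0.01% Tween 80 added for ** values.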

Compound | IC50 [µM]
NC1CCN(C(=O)[C@H](NS(=O)(=O)c2ccc3cc(OC4CCCC4)ccc3c2)C(F)(F)c2ccc(Cl)c(OC3CCCC3)c2)CC1 [Compound 170-2, (S)—N-(3-(4-aminopiperidin-1-yl)-1-(4-chloro-3-(cyclopentyloxy)phenyl)-1,1-difluoro-3-oxopropan-2-yl)-6-(cyclopentyloxy) naphthalene-2-sulfonamide trifluoroacetate] | 10 to 30
N[C@H]1CCN(C(=O)[C@@H](NS(=O)(=O)c2ccc(OCC3CCCCC3)cc2)C(F)(F)c2ccc(-c3ccc(Cl)cc3)cc2)C1 [Compound 171-1, N—((R)-3-((S)-3-aminopyrrolidin-1-yl)-1-(4′-chloro-[1,1′-biphenyl]-4-yl)-1,1-difluoro-3-oxopropan-2-yl)-4-(cyclohexylmethoxy)benzenesulfonamide trifluoroacetate] | 1 to 10
N[C@H]1CCN(C(=O)[C@H](NS(=O)(=O)c2ccc(OCC3CCCCC3)cc2)C(F)(F)c2ccc(-c3ccc(Cl)cc3)cc2)C1 [Compound 171-2, N—((S)-3-((S)-3-aminopyrrolidin-1-yl)-1-(4′-chloro-[1,1′-biphenyl]-4-yl)-1,1-difluoro-3-oxopropan-2-yl)-4-(cyclohexylmethoxy) benzenesulfonamide trifluoroacetate] | 30 to 100
CC(C)Oc1cc(C(F)(F)[C@H](NS(=O)(=O)c2ccc3cc(OC4CCCC4)ccc3c2)C(=O)N2CCC(N)CC2)ccc1Cl [Compound 172-1, (R)—N-(3-(4-aminopiperidin-1-yl)-1-(4-chloro-3-isopropoxyphenyl)-1,1-difluoro-3-oxopropan-2-yl)-6-(cyclopentyloxy)naphthalene-2-sulfonamide trifluoroacetate] | 1 to 10
CC(C)Oc1cc(C(F)(F)[C@@H](NS(=O)(=O)c2ccc3cc(OC4CCCC4)ccc3c2)C(=O)N2CCC(N)CC2)ccc1Cl [Compound 172-2, (S)—N-(3-(4-aminopiperidin-1-yl)-1-(4-chloro-3-isopropoxyphenyl)-1,1-difluoro-3-oxopropan-2-yl)-6-(cyclopentyloxy) naphthalene-2-sulfonamide trifluoroacetate] | 10 to 30
NC(=O)C1CCN(C(=O)[C@@H](NS(=O)(=O)c2ccc3cc(OC4CCCC4)ccc3c2)C(F)(F)c2ccc(-c3ccc(Cl)cc3)cc2)CC1 [Compound 173-1, (R)-1-(3-(4′-chloro-[1,1′-biphenyl]-4-yl)-2-((6-(cyclopentyloxy)naphthalene)-2-sulfonamido)-3,3-difluoropropanoyl)piperidine-4-carboxamide] | 1 to 10
NC(=O)C1CCN(C(=O)[C@H](NS(=O)(=O)c2ccc3cc(OC4CCCC4)ccc3c2)C(F)(F)c2ccc(-c3ccc(Cl)cc3)cc2)CC1 [Compound 173-2, (S)-1-(3-(4′-chloro-[1,1′-biphenyl]-4-yl)-2-((6-(cyclopentyloxy)naphthalene)-2-sulfonamido)-3,3-difluoropropanoyl)piperidine-4-carboxamide] | 30 to 100
NC(=NO)C1CCN(C(=O)[C@@H](NS(=O)(=O)c2ccc3cc(OC4CCCC4)ccc3c2)C(F)(F)c2ccc(-c3ccc(Cl)cc3)cc2)CC1 [Compound 174-1, (R)-1-(3-(4′-chloro-[1,1′-biphenyl]-4-yl)-2-((6-(cyclopentyloxy)naphthalene)-2-sulfonamido)-3,3-difluoropropanoyl)-N′-hydroxypiperidine-4-carboximidamide] | 1 to 10
NC(=NO)C1CCN(C(=O)[C@H](NS(=O)(=O)c2ccc3cc(OC4CCCC4)ccc3c2)C(F)(F)c2ccc(-c3ccc(Cl)cc3)cc2)CC1 [Compound 174-2, (S)-1-(3-(4′-chloro-[1,1′-biphenyl]-4-yl)-2-((6-(cyclopentyloxy)naphthalene)-2-sulfonamido)-3,3-difluoropropanoyl)-N′-hydroxypiperidine-4-carboximidamide] | 30 to 100
NC1CCN(C(=O)[C@@H](NC(=O)C(=O)c2cc3ccc(OC4CCCC4)cc3s2)C(F)(F)c2ccc(-c3ccc(Cl)cc3)cc2)CC1 [Compound 175-1, (R)—N-(3-(4-aminopiperidin-1-yl)-1-(4′-chloro-[1,1′-biphenyl]-4-yl)-1,1-difluoro-3-oxopropan-2-yl)-2-(6-(cyclopentyloxy)benzo[b]thiophen-2-yl)-2-oxoacetamide trifluoroacetate] | 10 to 30
NC1CCN(C(=O)[C@H](NC(=O)C(=O)c2cc3ccc(OC4CCCC4)cc3s2)C(F)(F)c2ccc(-c3ccc(Cl)cc3)cc2)CC1 [Compound 175-2, (S)—N-(3-(4-aminopiperidin-1-yl)-1-(4′-chloro-[1,1′-biphenyl]-4-yl)-1,1-difluoro-3-oxopropan-2-yl)-2-(6-(cyclopentyloxy)benzo[b]thiophen-2-yl)-2-oxoacetamide trifluoroacetate] | 30 to 100
O=C([C@@H](NS(=O)(=O)c1ccc2cc(OC3CCCC3)ccc2c1)C(F)(F)c1ccc(-c2ccc(Cl)cc2)cc1)N1Cc2cn[nH]c2C1 [Compound 176-1, (R)—N-(1-(4′-chloro-[1,1′-biphenyl]-4-yl)-3-(4,6-dihydropyrrolo[3,4-c]pyrazol-5(1H)-yl)-1,1-difluoro-3-oxopropan-2-yl)-6-(cyclopentyloxy)naphthalene-2-sulfonamide] | < 1
O=C([C@H](NS(=O)(=O)c1ccc2cc(OC3CCCC3)ccc2c1)C(F)(F)c1ccc(-c2ccc(Cl)cc2)cc1)N1Cc2cn[nH]c2C1 [Compound 176-2, (S)—N-(1-(4′-chloro-[1,1′-biphenyl]-4-yl)-3-(4,6-dihydropyrrolo[3,4-c]pyrazol-5(1H)-yl)-1,1-difluoro-3-oxopropan-2-yl)-6-(cyclopentyloxy)naphthalene-2-sulfonamide] | 30 to 100
NC1CC2CCC(C1)N2C(=O)[C@@H](NS(=O)(=O)c1ccc2cc(OC3CC3)ccc2c1)C(F)(F)c1ccc(Br)cc1 (stereo partly drawn) [Compound 177-1, N-((2R)-3-(3-amino-8-azabicyclo[3.2.1]octan-8-yl)-1-(4-bromophenyl)-1,1-difluoro-3-oxopropan-2-yl)-6-cyclopropoxynaphthalene-2-sulfonamide trifluoroacetate] | 1 to 10
NC1CC2CCC(C1)N2C(=O)[C@H](NS(=O)(=O)c1ccc2cc(OC3CC3)ccc2c1)C(F)(F)c1ccc(Br)cc1 (stereo partly drawn) [Compound 177-2, N-((2S)-3-(3-amino-8-azabicyclo[3.2.1]octan-8-yl)-1-(4-bromophenyl)-1,1-difluoro-3-oxopropan-2-yl)-6-cyclopropoxynaphthalene-2-sulfonamide trifluoroacetate] | 10 to 30
N[C@H]1CCN(C(=O)[C@H](NS(=O)(=O)c2ccc3cc(OC4CCCC4)ccc3c2)C(F)(F)c2ccc(-c3ccc(Cl)cc3)cc2)C[C@@H]1F [Compound 178-2, N—((S)-3-((3 S,4S)-4-amino-3-fluoropiperidin-1-yl)-1-(4′-chloro-[1,1′-biphenyl]-4-yl)-1,1-difluoro-3-oxopropan-2-yl)-6-(cyclopentyloxy) naphthalene-2-sulfonamide] | 1 to 10

Second part, the compound after the results:

IC50 [µM] | Compound
1 to 10 | N[C@H]1CCN(C(=O)[C@@H](NS(=O)(=O)c2ccc3cc(OC4CCCC4)ccc3c2)C(F)(F)c2ccc(-c3ccc(Cl)cc3)cc2)C[C@@H]1F [Compound 178-1, N—((R)-3-((3 S,4S)-4-amino-3-fluoropiperidin-1-yl)-1-(4′-chloro-[1,1′-biphenyl]-4-yl)-1,1-difluoro-3-oxopropan-2-yl)-6-(cyclopentyloxy)naphthalene-2-sulfonamide]
30 to 100 | N[C@@H]1CCN(C(=O)[C@H](NS(=O)(=O)c2ccc3cc(OC4CCCC4)ccc3c2)C(F)(F)c2ccc(-c3ccc(Cl)cc3)cc2)C[C@H]1F [Compound 178-3, N—((S)-3-((3R,4R)-4-amino-3-fluoropiperidin-1-yl)-1-(4′-chloro-[1,1′-biphenyl]-4-yl)-1,1-difluoro-3-oxopropan-2-yl)-6-(cyclopentyloxy)naphthalene-2-sulfonamide]
1 to 10 | O=C([C@@H](NS(=O)(=O)c1ccc(OCC2CCCCC2)cc1)C(F)(F)c1ccc(-c2ccc(Cl)cc2)cc1)N1C[C@H]2CNC[C@H]2C1 [Compound 179-1, N—((R)-1-(4′-chloro-[1,1′-biphenyl]-4-yl)-1,1-difluoro-3-((3aR,6aS)-hexahydropyrrolo[3,4-c]pyrrol-2(1H)-yl)-3-oxopropan-2-yl)-4-(cyclohexylmethoxy) benzenesulfonamide trifluoroacetate]
30 to 100 | O=C([C@H](NS(=O)(=O)c1ccc(OCC2CCCCC2)cc1)C(F)(F)c1ccc(-c2ccc(Cl)cc2)cc1)N1C[C@H]2CNC[C@H]2C1 [Compound 179-2, N—((S)-1-(4′-chloro-[1,1′-biphenyl]-4-yl)-1,1-difluoro-3-((3aR,6aS)-hexahydropyrrolo[3,4-c]pyrrol-2(1H)-yl)-3-oxopropan-2-yl)-4-(cyclohexylmethoxy)benzenesulfonamide trifluoroacetate]

Reference: US20190322676A1, “CERAMIDE GALACTOSYLTRANSFERASE INHIBITORS FOR THE TREATMENT OF DISEASE” (BioMarin Pharmaceutical Inc., priority 2016, published 2019)
